For data set [1], the system named is 661W photoreceptor cells. Nature of the data set: Cell viability of 661W cells under atRAL oxidative stress (MTS). In kind it is cell-based, mouse. To be noted: 24 hours; for viability at 0.5 µM: Mus musculus, 661W, 0.5 μM compound with atRAL 1.8 μM. Here is the method:
In detail, 661W photoreceptor cells were cultured in 96-wells at a concentration of 3×10^3 cells/well and treated with atRAL having a concentration of 1.8 μM (Sigma Aldrich, St. Louis, Mo., USA) for 24 hours. Then, the medium was replaced with medium containing MTS reagent, and they were cultured for 1 hour. The absorbance thereof was measured at 490 nm, and the results were compared to determine cell viability. The cell viability thereof was measured by Celltiter^96 Aqueous One solution assay kit (Promega).

Data set [2] has as its system malondialdehyde (MDA) production in 661W photoreceptor cells. The data set is described as follows: Malondialdehyde (MDA) denatured protein in atRAL-treated 661W cells (MDA immunoblot). The following applies: 2 hours; for expression level of MDA-denatured protein compared with group treated with atRAL only: sargachromenol 0.5 μM, sargahydroquinoic acid 0.5 μM or sargaquinoic acid 1.0 μM, with atRAL 1.8 μM. The data set is classed as cell-based, mouse. Here is the method:
For reference, the malondialdehyde (MDA) is the result of lipid peroxidation by excessive oxidative stress in cells, and thus the amount of MDA in cells is a factor to measure the degree of oxidative stress.
(§1) In detail, samples of each of Sargassum serratifolium ethanol extract and the compounds separated therefrom were mixed with a specific amount of atRAL (1.8 μM) and Sargassum serratifolium ethanol extract (0.5 μg/mL), sargachromenol (0.5 μM), sargahydroquinoic acid (0.5 μM), or sargaquinoic acid (1.0 μM). The photoreceptor cells were treated with mixtures thereof. Then, they were cultured for 2 hours. The cells were then washed with PBS and the intracellular proteins were recovered. The number of proteins denatured by the lipid peroxides in cells was analyzed by protein immunoassay using MDA immunoblot kit (Cell biolabs).
as §1, with “acid (0.5 μM) or sargaquinoic” for “acid (0.5 μM), or sargaquinoic”, “treated with mixtures. Then, they” for “treated with mixtures thereof. Then, they”

In data set [3] the test system is reactive oxygen species in 661W photoreceptor cells. The data set is described as follows: Reactive oxygen species in atRAL-treated 661W cells (DCFH-DA, flow cytometry). The data set is classed as cell-based, mouse. The following applies: 30 minutes. Here is the method:
For reference, 2′,7′-dichlorodihydrofluorescein diacetate (DCFH-DA) converts to DCF, which expresses fluorescence in response to oxidative stress in cells. Therefore, the expression of DCF in cells is used as an indicator of the degree of oxidative stress.
In order to examine the antioxidative effect of the Sargassum serratifolium ethanol extract and the compounds separated therefrom of the present invention, atRAL (1.8 μM) and Sargassum serratifolium ethanol extract (0.5 μg/mL), sargachromenol (0.5 μM), sargahydroquinoic acid (0.5 μM), or sargaquinoic acid (1.0 μM) were added to medium mixed with DCFH-DA (20 μM), and the photoreceptor cells were treated with them and cultured for 30 minutes. Then, the cells were washed with PBS, and the cells were recovered. The cells expressing the fluorescence were measured using flow cytometry.
In order to examine the antioxidative effect of the Sargassum serratifolium ethanol extract and the compounds separated therefrom of the present invention, atRAL (1.8 μM) and Sargassum serratifolium ethanol extract (0.5 μg/mL), sargachromenol (0.5 μM), sargahydroquinoic acid (0.5 μM) or sargaquinoic acid (1.0 μM) were added to medium mixed with DCFH-DA (20 μM), and the photoreceptor cells were treated with them and cultured for 30 minutes. Then, the cells were washed with PBS, and the cells were recovered. The cells expressing the fluorescence were measured using flow cytometry.
A general note: A flow cytometer gives signals particle by particle.

The nature of data set [4]: ABTs assay (ABTs cation scavenging). In kind it is biochemical. To be noted: 6 minutes, 732 nm. Here is the method: The ABTs assay is similar to the DPPH assay but differs in that antioxidative activity is measured by generating free radicals through chemical reactions. ABTs are reacted with potassium persulfate to generate ABTs […] radicals, which react with H-donors such as phenolic compounds to be converted to colorless ABTs. Accordingly, the degree of antioxidative activity may be determined by measuring the amount of ABTs consumed by reacting with a sample containing a phenolic compound.
ABTs antioxidative activity was measured by partially modified Van den Berg (1999) and others using the discoloration of ABTs radical-specific green color by antioxidants.
Potassium persulfate was added to 7 mM ABTs solution at a final concentration of 2.4 mM. They reacted in the dark for 12 hours to 16 hours at R/T so as to produce ABTs cations. The resulting ABTs cation was diluted to be used, having an absorbance value of 0.7±0.02. […] The absorbance thereof was measured at 732 nm. The radical scavenging activity was calculated from the measured values as follows. […]
Potassium persulfate was added to 7 mM ABTS solution at a final concentration of 2.4 mM. […] The resulting ABTs cation was diluted to be used, having an absorbance value of 0.7±0.02. […] The absorbance thereof was measured at 732 nm. The radical scavenging activity was calculated from the measured values as follows. […]

The nature of data set [5]: DPPH radical scavenging activity. In kind it is biochemical. The following applies: DPPH 200 μM, 30 minutes, 517 nm. Background: The DPPH test is a chemical assay of radical scavenging.
Procedure: For the measurement, 100 μl DPPH having a concentration of 200 μM and 100 μl the sample were mixed in a 96-well plate, and they reacted at room temperature for about 30 minutes. Then, the absorbance thereof was measured at 517 nm using a microplate reader. BHT was used as a positive control. The concentration was compared at the same as that of the sample.
DPPH radical scavenging activity was calculated by the method as described below. Radical scavenging activity (%)=(ADPPH−Asample)/ADPPH×100
For the measurement, 100 μl DPPH having a concentration of 200 μM and 100 μl the sample were mixed in a 96-well plate, and they reacted at room temperature for about 30 minutes. Then, the absorbance thereof was measured at 517 nm using a microplate reader. BHT was used as a positive control. The concentration thereof was compared to the same as that of the sample.
DPPH radical scavenging activity was calculated by the method as described below.
Data set [6] can be described thus: Hydroxyl radical scavenging (deoxyribose test). The data set is classed as biochemical. The following applies: 37° C. 1 hour, 532 nm. As to the method:
Hydroxyl radicals (—OH) are the most reactive radicals among oxygen radicals, which occur during aerobic metabolism in the human body. These radicals damage peripheral cells to create collateral living body molecules. A deoxyribose test was performed so as to measure the ability to scavenge hydroxyl radicals. Hydroxyl radicals attack deoxyribose to create small fragments. Some of which are pink when added with TBA (thiobarbituric acid) under an acidic pH environment, so the degree of damage by hydroxyl radicals is measured by absorbance at 532 nm.
Experimental methods described in Chandini, Ganesan, and Bhaskar (Chandini, S. K., Ganesan, p., and Bhaskar, N. (2008) In vitro antioxidant activities of three selected brown seaweeds of India. Food Chemistry, 107, 707-713) were modified to be used. […] 1 ml the sample to be measured was mixed with the working solution, and 0.1 ml ascorbic acid (1 mM) is added to form Fe2+−EDTA mixture which is an […] of ferric chloride (FeCl3) and ethylenediamine tetraacetic acid (EDTA). […] The absorbance thereof was measured. […]
Experimental methods described in Chandini, Ganesan, and Bhaskar (Chandini, S. K., Ganesan, p., and Bhaskar, N. (2008) In vitro antioxidant activities of three selected brown seaweeds of India. Food Chemistry, 107, 707-713) were modified to be used. […] The absorbance thereof was measured. […]

Data set [7] relates to 661W photoreceptor cells. The data set is described as follows: Cytotoxicity on 661W photoreceptor cells (MTS). In kind it is cell-based, mouse. The following applies: 661W cells, separated compounds. Here is the method: (§2) 661W photoreceptor cells were cultured in 96-wells at a concentration of 3×10^3 cells/well. Then, they were treated with 1.0 μg/ml Sargassum serratifolium ethanol extract or compounds separated therefrom (sargahydroquinoic acid (SHQ), sargachromenol (SCM), and sargaquinoic acid (SQA)) at a concentration of 1.0 μM and cultured for 24 hours. Then, the medium was replaced with medium containing MTS reagent. Then, they were cultured for 1 hour. Cell viability was measured by measuring the absorbance at 490 nm and comparing the results. The cell viability thereof was analyzed by Celltiter^96 Aqueous One solution assay kit (Promega).
as §2, with “viability” for “viability thereof”

Setting [8] is: compound 0.5 μM and atRAL 1.8 μM.

The structures appear in SMILES notation.

The viability is the share of living cells, or the viability signal relative to a control.

As to `CC(C)=CCC/C(=C/CC/C(C)=C/CCC1(C)C=Cc2cc(O)cc(C)c2O1)C(=O)O` (stereo not drawn) [sargachromenol], in data set [1], the viability at 0.5 µM is more than 90%. Besides, in data set [2], the “expression level of MDA-denatured protein compared with group treated with atRAL only” value was “effectively reduced”. For the same compound, the “fluorescence expression level (DCF) reduced compared to group treated with atRAL only” value in data set [3] (setting [8]) was 76%; in data set [3] (compound 0.5 μM and atRAL 1.8 μM, listed as SCM), approximately 77%.

Regarding `CC1=C(/C=C/C(C)=C/C=C/C(C)=C/C=O)C(C)(C)CCC1` [atRAL, all-trans-retinal, reference compound], the “cell viability reduced in the only atRAL-treated group” value in data set [1] (atRAL 1.8 μM alone) is reported as “about 55%”. Also, the “expression level of protein denatured by MDA compared with the control” value in data set [2] (atRAL 1.8 μM only) is “increased”. Also, in data set [3] (atRAL 1.8 μM only), the “fluorescence expression level (DCF) higher than that of the control group” value is “about 80%”.

For the compound `Cc1cc(C(C)(C)C)c(O)c(C(C)(C)C)c1` [BHT], the “ABTs (IC50, μg/ml)” value in data set [4] turned out to be 7.77 ± 0.74 µg/mL. Besides, in data set [5], the “DPPH (IC50, μg/ml)” value was found to be 11.18 ± 0.15 µg/mL. In addition, the “OH radical (IC50, μg/ml)” value in data set [6] is 1.675 ± 0.21 µg/mL.

With `CC(C)=CCC/C(=C/CC/C(C)=C/CC/C(C)=C/Cc1cc(O)cc(C)c1O)C(=O)O` [sargahydroquinoic acid], the viability at 0.5 µM in data set [1] is more than 90%. For the same compound, in data set [2], the “expression level of MDA-denatured protein compared with group treated with atRAL only” value is “effectively reduced”. The “fluorescence expression level (DCF) reduced compared to group treated with atRAL only” value in data set [3] (setting [8]) is 77%; in data set [3] (compound 0.5 μM and atRAL 1.8 μM, listed as SHQ), “about 76%”.

On to `CC(C)=CCC/C(=C/CC/C(C)=C/CC/C(C)=C/CC1=CC(=O)C=C(C)C1=O)C(=O)O` [sargaquinoic acid], for which the viability at 0.5 µM in data set [1] was more than 90%. The “expression level of MDA-denatured protein compared with group treated with atRAL only” value in data set [2] is reported as “effectively reduced”. For the same compound, the “fluorescence expression level (DCF) reduced compared to group treated with atRAL only” value in data set [3] (compound 1.0 μM and atRAL 1.8 μM) came out at 73%. In data set [7], the “concentration up to which there was no cytotoxicity” value was not above 1000 nM.
